Results on three compounds are retold here after patent US10155760B2, “Biaryl kinase inhibitors” (BRISTOL-MYERS SQUIBB COMPANY, priority 2014, dated 2018).

pIC50: −log10 of the molar value.

The test system of one experiment is PC12 cells. To be noted: cited from earlier work.
The target of a further experiment is GST-Xa-hAAK1 (Homo sapiens (Human), UniProt Q2M2I8). In words: AAK1 Kinase Assay. The class given is biochemical. To be noted: ATP 22 μM; GST-Xa-hAAK1 3.5 nM; 3 hours at room temperature.
GST-Xa-hAAK1, sequence (Q2M2I8 whole entry): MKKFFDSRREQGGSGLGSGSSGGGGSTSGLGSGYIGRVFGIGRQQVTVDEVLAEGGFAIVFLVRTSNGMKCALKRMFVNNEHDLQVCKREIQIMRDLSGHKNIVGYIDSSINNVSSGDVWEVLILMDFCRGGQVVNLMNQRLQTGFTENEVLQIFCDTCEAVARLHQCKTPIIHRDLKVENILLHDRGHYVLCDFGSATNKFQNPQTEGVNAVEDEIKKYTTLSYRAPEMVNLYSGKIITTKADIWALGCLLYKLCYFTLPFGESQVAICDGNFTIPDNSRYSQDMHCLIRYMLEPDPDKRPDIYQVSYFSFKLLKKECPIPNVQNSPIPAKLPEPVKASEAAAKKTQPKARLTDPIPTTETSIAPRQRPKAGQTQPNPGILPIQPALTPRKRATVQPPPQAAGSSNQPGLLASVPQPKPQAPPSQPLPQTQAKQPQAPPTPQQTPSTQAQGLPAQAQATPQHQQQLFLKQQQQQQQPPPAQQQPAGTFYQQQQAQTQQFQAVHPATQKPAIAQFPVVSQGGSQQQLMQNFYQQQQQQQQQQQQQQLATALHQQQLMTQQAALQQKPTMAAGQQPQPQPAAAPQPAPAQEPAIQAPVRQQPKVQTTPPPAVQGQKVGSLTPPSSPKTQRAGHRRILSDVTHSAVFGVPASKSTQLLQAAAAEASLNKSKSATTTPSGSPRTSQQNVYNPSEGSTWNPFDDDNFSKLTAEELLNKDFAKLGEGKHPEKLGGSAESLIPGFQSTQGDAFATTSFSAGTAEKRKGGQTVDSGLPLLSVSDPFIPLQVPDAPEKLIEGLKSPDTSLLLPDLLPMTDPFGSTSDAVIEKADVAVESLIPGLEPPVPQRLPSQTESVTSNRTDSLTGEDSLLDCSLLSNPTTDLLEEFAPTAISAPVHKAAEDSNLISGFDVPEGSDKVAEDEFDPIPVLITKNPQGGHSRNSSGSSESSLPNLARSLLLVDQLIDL
Experiment [1] relates to HCV. The settings on record: Huh-7.5 cells; cited from earlier work.
Experiment [2] concerns HCV. To be noted: Huh-7.5 cells; cited from earlier work. This is another data set of the same source.

Description for GST-Xa-hAAK1: The assays were performed in U-bottom 384-well plates. […] The reactions were initiated by the combination of bacterially expressed, GST-Xa-hAAK1 with substrates and test compounds. The reactions were incubated at room temperature for 3 hours and terminated by adding 60 μl of 35 mM EDTA buffer to each sample. The reactions were analyzed on the Caliper LabChip 3000 (Caliper, Hopkinton, Mass.) by electrophoretic separation of the fluorescent substrate and phosphorylated product. […] Compounds were dissolved at 10 mM in dimethylsulfoxide (DMSO) and evaluated at eleven concentrations. IC50 values were derived by non-linear regression analysis.

`COC(=O)[C@@]1(O)C[C@H]2O[C@]1(C)n1c3ccccc3c3c4c(c5c6ccccc6n2c5c31)C(=O)NC4` [Example K252a, K252a]: the “effect on Neuregulin-1 induced neurite outgrowth” value in the experiment with PC12 cells is listed as “potentiation of Neuregulin-1 induced neurite outgrowth”. `CC(C)C[C@](C)(N)COc1ccc(-c2ccnc3cc(F)ccc23)nc1Cl` [Example 136, (S)-1-((2-chloro-6-(7-fluoroquinolin-4-yl)pyridin-3-yl)oxy)-2,4-dimethylpentan-2-amine]: the negative logarithm of the IC50 (pIC50) (usually −log10 of the IC50, conventionally taken in molar units) on GST-Xa-hAAK1 is 8.32.

In the case of `CCN(CC)CCNC(=O)c1c(C)[nH]c(/C=C2\C(=O)Nc3ccc(F)cc32)c1C` [sunitinib], the “effect on HCV virion assembly” value in the experiment on HCV [1] was “reduced HCV virion assembly”. For the same compound, the “effect on HCV entry” value in the experiment on HCV [2] was “inhibit HCV entry”.
